Measured values reported in patent US11839215B2, “Uracil compound and harmful arthropod control composition containing same” (Sumitomo Chemical Company, Limited, priority 2018, dated 2023).

System: common cutworms (Spodoptera litura)
Test: Test Example 1: spray on cabbage seedling, mortality of common cutworm larvae
Type: in vivo
Conditions: 500 ppm diluted solution sprayed on cabbage seedling 20 mL/seedling; five second instar larvae; 25° C., 5 days
Description: The compound A is made to a formulation according to a similar method to that described in the Formulation Example 5, and thereto is added water containing 0.03 v/v % of shindain (registered trademark) to prepare a diluted solution containing 500 ppm of the test compound.
The diluted solution was sprayed into the cabbage (Brassicae oleracea) seedling (on the developmental stage of the second to third true leaf) that is planted in a container in a ratio of 20 mL/seedling.
Thereafter, the stem and leaf thereof was cut out and then was installed into the container that was covered with the filter paper. Five common cutworms (Spodoptera litura) at the second instar larval stages were released into the container, and the container was allowed to stand at 25° C. for 5 days. […] Mortality (%)={1−Number of the surviving insects/5}×100

| SMILES | mortality of insects [%] |
| --- | --- |
| CCOC(=O)COc1nc(C)cc(C)c1Oc1cc(-n2c(=O)cc(C(F)(F)F)n(C)c2=O)c(F)cc1Cl [Compound A] | 100 |
| CCOC(=O)COc1ncccc1Oc1cc(-n2c(=O)cc(C(F)(F)F)n(C)c2=O)c(F)cc1Cl [Compound B] | 0 |
